Data published in patent EP4578856A1, “HETEROCYCLIC COMPOUND” (Ubience Inc., priority 2022, dated 2024).

Biological target: ROCK2 protein (Homo sapiens, UniProt O75116)
Assay: Degradation inducing activity of ROCK2 protein in HUVEC cells, Western blotting (Simple Western JESS)
Assay type: cell-based
Set-up: endogenous in cells; host or cells: HUVEC (ATCC CRL-1730)
Details: HUVEC, 24 h; for inhibition at 1 µM: degradation rate at 1 µM; for inhibition at 10 µM: degradation rate at 10 µM
In short: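 HUVEC cells treated 24 h with compound at 10 µM or 1 µM, then lysed; ROCK2 quantified by capillary Western (Simple Western JESS) using rabbit mAb D1B1, normalized to total loaded protein. Degradation rate (%) calculated relative to DMSO control set at 100%, binned A ≥75%, B 50–75%, C 25–50%, D <25%.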

Chain of ROCK2 protein (O75116 whole entry): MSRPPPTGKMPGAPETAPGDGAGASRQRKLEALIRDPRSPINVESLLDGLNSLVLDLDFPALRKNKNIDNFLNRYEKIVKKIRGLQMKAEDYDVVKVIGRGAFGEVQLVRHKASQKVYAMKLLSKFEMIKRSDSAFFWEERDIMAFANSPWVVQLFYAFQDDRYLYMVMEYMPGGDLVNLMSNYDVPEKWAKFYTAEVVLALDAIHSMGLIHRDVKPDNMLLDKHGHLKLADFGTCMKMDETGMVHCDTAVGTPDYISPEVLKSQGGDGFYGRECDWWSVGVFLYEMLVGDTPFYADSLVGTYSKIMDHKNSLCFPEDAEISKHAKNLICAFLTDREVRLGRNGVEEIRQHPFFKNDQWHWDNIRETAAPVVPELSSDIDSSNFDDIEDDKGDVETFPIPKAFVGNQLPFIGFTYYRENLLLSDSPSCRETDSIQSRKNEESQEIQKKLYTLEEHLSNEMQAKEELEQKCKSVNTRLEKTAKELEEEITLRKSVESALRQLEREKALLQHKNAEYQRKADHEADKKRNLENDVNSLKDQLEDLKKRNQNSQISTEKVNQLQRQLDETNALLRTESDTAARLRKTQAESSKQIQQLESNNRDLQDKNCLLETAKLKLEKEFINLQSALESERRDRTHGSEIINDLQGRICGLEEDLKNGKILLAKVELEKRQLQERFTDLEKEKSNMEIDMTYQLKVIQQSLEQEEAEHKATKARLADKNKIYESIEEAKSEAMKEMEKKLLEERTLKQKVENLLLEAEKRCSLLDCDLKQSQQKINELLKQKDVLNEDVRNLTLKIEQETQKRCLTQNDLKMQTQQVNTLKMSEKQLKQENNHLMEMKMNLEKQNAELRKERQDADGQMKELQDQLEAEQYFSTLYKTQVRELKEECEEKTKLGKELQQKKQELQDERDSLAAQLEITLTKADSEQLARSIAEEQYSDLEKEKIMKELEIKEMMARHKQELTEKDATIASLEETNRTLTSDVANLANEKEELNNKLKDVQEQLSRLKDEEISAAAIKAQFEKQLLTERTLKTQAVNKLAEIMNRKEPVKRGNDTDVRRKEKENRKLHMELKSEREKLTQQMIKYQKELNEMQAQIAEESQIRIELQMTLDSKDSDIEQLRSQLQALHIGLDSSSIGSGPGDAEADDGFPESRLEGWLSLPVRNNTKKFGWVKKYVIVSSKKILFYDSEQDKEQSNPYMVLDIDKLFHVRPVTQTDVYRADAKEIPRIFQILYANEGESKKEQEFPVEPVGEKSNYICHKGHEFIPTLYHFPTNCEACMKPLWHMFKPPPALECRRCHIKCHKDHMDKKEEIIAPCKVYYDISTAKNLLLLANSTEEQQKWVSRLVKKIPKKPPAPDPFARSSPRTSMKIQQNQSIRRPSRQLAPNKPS

inhibition at 1 µM [%]	inhibition at 10 µM [%]	SMILES
< 25	≥ 75	COC[C@H]1CN[C@H](C)CN1CC(=O)N1CC(C)(C)c2nc(CN(C)CCOCCOCCOCCNC[C@@H](C(=O)Nc3ccc4cnccc4c3)c3ccccc3)c(Cc3ccc(F)cc3)cc21 [Example 38, (S)-1-(6-(4-Fluorobenzyl)-1-(2-((2R,5R)-2-(methoxymethyl)-5-methylpiperazin-1-yl)acetyl)-3,3-dimethyl-2,3-dihydro-1H-pyrrolo[3,2-b]pyridin-5-yl)-N-(isoquinolin-6-yl)-2-methyl-16-phenyl-5,8,11-trioxa-2,14-diazaheptadecan-17-amide]
25 to 50	≥ 75	COC[C@H]1CN[C@H](C)CN1CC(=O)N1CC(C)(C)c2nc(CN(C)CCOCCOCCOCCOCCNC[C@@H](C(=O)Nc3ccc4cnccc4c3)c3ccccc3)c(Cc3ccc(F)cc3)cc21 [Example 39, (S)-1-(6-(4-Fluorobenzyl)-1-(2-((2R,5R)-2-(methoxymethyl)-5-methylpiperazin-1-yl)acetyl)-3,3-dimethyl-2,3-dihydro-1H-pyrrolo[3,2-b]pyridin-5-yl)-N-(isoquinolin-6-yl)-2-methyl-19-phenyl-5,8,11,14-tetraoxa-2,17-diazaicosan-20-amide]
25 to 50	50 to 75	COC[C@H]1CN[C@H](C)CN1CC(=O)N1CC(C)(C)c2nc(CN(C)CCOCCOCCOCCOCCOCCNC[C@@H](C(=O)Nc3ccc4cnccc4c3)c3ccccc3)c(Cc3ccc(F)cc3)cc21 [Example 40, (S)-1-(6-(4-Fluorobenzyl)-1-(2-((2R,5R)-2-(methoxymethyl)-5-methylpiperazin-1-yl)acetyl)-3,3-dimethyl-2,3-dihydro-1H-pyrrolo[3,2-b]pyridin-5-yl)-N-(isoquinolin-6-yl)-2-methyl-22-phenyl-5,8,11,14,17-pentaoxa-2,20-diazatricosan-23-amide]
50 to 75	≥ 75	COC[C@H]1CN[C@H](C)CN1CC(=O)N1CC(C)(C)c2nc(CN(C)CCOCCOCCOCCOCCOCCOCCNC[C@@H](C(=O)Nc3ccc4cnccc4c3)c3ccccc3)c(Cc3ccc(F)cc3)cc21 [Example 41, (S)-1-(6-(4-Fluorobenzyl)-1-(2-((2R,5R)-2-(methoxymethyl)-5-methylpiperazin-1-yl)acetyl)-3,3-dimethyl-2,3-dihydro-1H-pyrrolo[3,2-b]pyridin-5-yl)-N-(isoquinolin-6-yl)-2-methyl-25-phenyl-5,8,11,14,17,20-hexaoxa-2,23-diazahexacosan-26-amide]
50 to 75	≥ 75	COC[C@H]1CN[C@H](C)CN1CC(=O)N1CC(C)(C)c2nc(CN(C)CCOCCOCCOCCOCCOCCOCCOCCNC[C@@H](C(=O)Nc3ccc4cnccc4c3)c3ccccc3)c(Cc3ccc(F)cc3)cc21 [Example 42, (S)-1-(6-(4-Fluorobenzyl)-1-(2-((2R,5R)-2-(methoxymethyl)-5-methylpiperazin-1-yl)acetyl)-3,3-dimethyl-2,3-dihydro-1H-pyrrolo[3,2-b]pyridin-5-yl)-N-(isoquinolin-6-yl)-2-methyl-28-phenyl-5,8,11,14,17,20,23-heptaoxa-2,26-diazanonacosan-29-amide]
25 to 50	≥ 75	COC[C@H]1CN[C@H](C)CN1CC(=O)N1CC(C)(C)c2ncc(Cc3cccc(OCCOCCN[C@H](C)c4ccc(C(=O)Nc5ccncc5)cc4)c3)cc21 [Example 43, 4-((R)-1-((2-(2-(3-((1-(2-((2R,5R)-2-(Methoxymethyl)-5-methylpiperazin-1-yl)acetyl)-3,3-dimethyl-2,3-dihydro-1H-pyrrolo[3,2-b]pyridin-6-yl)methyl)phenoxy)ethoxy)ethyl)amino)ethyl)-N-(pyridin-4-yl)benzamide]
50 to 75	≥ 75	COC[C@H]1CN[C@H](C)CN1CC(=O)N1CC(C)(C)c2ncc(Cc3cccc(OCCOCCOCCN[C@H](C)c4ccc(C(=O)Nc5ccncc5)cc4)c3)cc21 [Example 44, 4-((R)-1-((2-(2-(2-(3-((1-(2-((2R,5R)-2-(Methoxymethyl)-5-methylpiperazin-1-yl)acetyl)-3,3-dimethyl-2,3-dihydro-1H-pyrrolo[3,2-b]pyridin-6-yl)methyl)phenoxy)ethoxy)ethoxy)ethyl)amino)ethyl)-N-(pyridin-4-yl)benzamide]
< 25	50 to 75	COC[C@H]1CN[C@H](C)CN1CC(=O)N1CC(C)(C)c2ncc(Cc3cccc(OCCOCCOCCOCCN[C@H](C)c4ccc(C(=O)Nc5ccncc5)cc4)c3)cc21 [Example 45, 4-((R)-14-(3-((1-(2-((2R,5R)-2-(Methoxymethyl)-5-methylpiperazin-1-yl)acetyl)-3,3-dimethyl-2,3-dihydro-1H-pyrrolo[3,2-b]pyridin-6-yl)methyl)phenoxy)-6,9,12-trioxa-3-azatetradecan-2-yl)-N-(pyridin-4-yl)benzamide]
25 to 50	25 to 50	COC[C@H]1CN[C@H](C)CN1CC(=O)N1CC(C)(C)c2ncc(Cc3cccc(OCCOCCOCCOCCOCCN[C@H](C)c4ccc(C(=O)Nc5ccncc5)cc4)c3)cc21 [Example 46, 4-((R)-17-(3-((1-(2-((2R,5R)-2-(Methoxymethyl)-5-methylpiperazin-1-yl)acetyl)-3,3-dimethyl-2,3-dihydro-1H-pyrrolo[3,2-b]pyridin-6-yl)methyl)phenoxy)-6,9,12,15-tetraoxa-3-azaheptadecan-2-yl)-N-(pyridin-4-yl)benzamide]
50 to 75	≥ 75	COC[C@H]1CN[C@H](C)CN1CC(=O)N1CC(C)(C)c2ncc(Cc3cccc(OCCOCCOCCOCCOCCOCCN[C@H](C)c4ccc(C(=O)Nc5ccncc5)cc4)c3)cc21 [Example 47, 4-((R)-20-(3-((1-(2-((2R,5R)-2-(Methoxymethyl)-5-methylpiperazin-1-yl)acetyl)-3,3-dimethyl-2,3-dihydro-1H-pyrrolo[3,2-b]pyridin-6-yl)methyl)phenoxy)-6,9,12,15,18-pentaoxa-3-azaicosan-2-yl)-N-(pyridin-4-yl)benzamide]
≥ 75	50 to 75	COC[C@H]1CN[C@H](C)CN1CC(=O)N1CC(C)(C)c2ncc(Cc3cccc(OCCOCCOCCOCCOCCOCCOCCOCCN[C@H](C)c4ccc(C(=O)Nc5ccncc5)cc4)c3)cc21 [Example 49, 4-((R)-26-(3-((1-(2-((2R,5R)-2-(Methoxymethyl)-5-methylpiperazin-1-yl)acetyl)-3,3-dimethyl-2,3-dihydro-1H-pyrrolo[3,2-b]pyridin-6-yl)methyl)phenoxy)-6,9,12,15,18,21,24-heptaoxa-3-azahexacosan-2-yl)-N-(pyridin-4-yl)benzamide]
25 to 50	≥ 75	COC[C@H]1CN[C@H](C)CN1CC(=O)N1CC(C)(C)c2ncc(Cc3cccc(OCCOCCN[C@H](Cc4cccc(F)c4)C(=O)Nc4ccc(-c5ccncc5)cc4)c3)cc21 [Example 50, (R)-3-(3-Fluorophenyl)-2-((2-(2-(3-((1-(2-((2R,5R)-2-(methoxymethyl)-5-methylpiperazin-1-yl)acetyl)-3,3-dimethyl-2,3-dihydro-1H-pyrrolo[3,2-b]pyridin-6-yl)methyl)phenoxy)ethoxy)ethyl)amino)-N-(4-(pyridin-4-yl)phenyl)propanamide]
50 to 75	≥ 75	COC[C@H]1CN[C@H](C)CN1CC(=O)N1CC(C)(C)c2ncc(Cc3cccc(OCCOCCOCCN[C@H](Cc4cccc(F)c4)C(=O)Nc4ccc(-c5ccncc5)cc4)c3)cc21 [Example 51, (R)-3-(3-Fluorophenyl)-2-((2-(2-(2-(3-((1-(2-((2R,5R)-2-(methoxymethyl)-5-methylpiperazin-1-yl)acetyl)-3,3-dimethyl-2,3-dihydro-1H-pyrrolo[3,2-b]pyridin-6-yl)methyl)phenoxy)ethoxy)ethoxy)ethyl)amino)-N-(4-(pyridin-4-yl)phenyl)propenamide]
25 to 50	50 to 75	COC[C@H]1CN[C@H](C)CN1CC(=O)N1CC(C)(C)c2ncc(Cc3cccc(OCCOCCOCCOCCN[C@H](Cc4cccc(F)c4)C(=O)Nc4ccc(-c5ccncc5)cc4)c3)cc21 [Example 52, (R)-2-(3-Fluorobenzyl)-14-(3-((1-(2-((2R,5R)-2-(methoxymethyl)-5-methylpiperazin-1-yl)acetyl)-3,3-dimethyl-2,3-dihydro-1H-pyrrolo[3,2-b]pyridin-6-yl)methyl)phenoxy)-N-(4-(pyridin-4-yl)phenyl)-6,9,12-trioxa-3-azatetradecanamide]
< 25	50 to 75	COC[C@H]1CN[C@H](C)CN1CC(=O)N1CC(C)(C)c2ncc(Cc3cccc(OCCOCCOCCOCCOCCN[C@H](Cc4cccc(F)c4)C(=O)Nc4ccc(-c5ccncc5)cc4)c3)cc21 [Example 53, (R)-2-(3-Fluorobenzyl)-17-(3-((1-(2-((2R,5R)-2-(methoxymethyl)-5-methylpiperazin-1-yl)acetyl)-3,3-dimethyl-2,3-dihydro-1H-pyrrolo[3,2-b]pyridin-6-yl)methyl)phenoxy)-N-(4-(pyridin-4-yl)phenyl)-6,9,12,15-tetraoxa-3-azaheptadecanamide]
≥ 75	25 to 50	COC[C@H]1CN[C@H](C)CN1CC(=O)N1CC(C)(C)c2ncc(Cc3cccc(OCCOCCOCCOCCOCCOCCN[C@H](Cc4cccc(F)c4)C(=O)Nc4ccc(-c5ccncc5)cc4)c3)cc21 [Example 54, (R)-2-(3-Fluorobenzyl)-20-(3-((1-(2-((2R,5R)-2-(methoxymethyl)-5-methylpiperazin-1-yl)acetyl)-3,3-dimethyl-2,3-dihydro-1H-pyrrolo[3,2-b]pyridin-6-yl)methyl)phenoxy)-N-(4-(pyridin-4-yl)phenyl)-6,9,12,15,18-pentaoxa-3-azaicosanamide]
